The source of these data is PMC7060258 (Scientific Reports, 2020).

No end group written: not given here.

The subject of the test is murine neuroblastoma Neuro2a cells. As to the kind of experiment: Intracellular ROS formation level (H2DCF-DA). Format: cell-based. On the procedure: We estimated whether rHCIQ2c1 is able to inhibit reactive oxygen species (ROS) production. After incubation of Neuro2a cells with rHCIQ2c1 (up to 10 µM) and 6-OHDA (25 µM), ROS content was evaluated by measurement of dichlorofluorescin intensity.
The intracellular ROS level was detected using 2,7-dichlordihydrofluorescein diacetate (H2DCF-DA) solution (Molecular Probes, final concentration 10 µM). In this study, mouse neuroblastoma Neuro2a cells seeded on 96-well plates were washed twice with serum-free DMEM and thereafter incubated for 1 h in serum-free MEM medium in the presence of compounds in concentrations from 10 pM to 10 µM. Cell were treated with 6-OHDA (25 μM) for 30 min at 37 °C with 5% CO2. Followed by treatment with 6-OHDA, the cells were washed once with PBS. After washing with serum-free DMEM medium, the cells were loaded with H2DCF-DA for 30 min. The intensity of dichlorofluorescin fluorescence was measured with plate reader PHERAstar FS (BMG Labtech, Germany) at λex = 485 nm and λem = 518 nm. The cytoprotective effect of peptides and the increase in cell viability under their action was calculated as a percentage, taking the cell viability treated with 6-OHDA as 100%.

Consider “rHCIQ2c1: recombinant Kunitz-peptide of Heteractis crispa, most prevalent isoform, mature peptide 58 aa, expressed in E. coli (IQGNICSEPKKVGRCRGSFPRFYFDSETGKCTPFIYGGCGGNGNNFETLHACRAICRA; ends and bridges not checked; cysteine pairing not given here)”, for which, for the setting “0.001–0.01 µM peptide, pretreatment 1 h, 6-OHDA 25 µM 30 min, dichlorofluorescin fluorescence”, the “Reduction of ROS production” value is 34%. Further, the “Concentration dependence of ROS level” value (up to 10 µM peptide, 6-OHDA 25 µM) is “An increase in ROS formation when the concentration of rHCIQ2c1 increases from 0.01 to 1 µM, and its decrease again at 10 µM”.
